Assay results taken from ChEMBL document CHEMBL4184109, “Design, synthesis, and structure-activity relationship studies of novel tetrazole antifungal agents with potent activity, broad antifungal spectrum and high selectivity” (Bioorg Med Chem Lett, 2018).
≈ marks a conversion by molar mass, not a printed value.

What was measured:
Format in all cases: functional
[1] = tested on: Candida albicans; test: Antifungal activity against Candida albicans Y0109 after 24 hrs by serial dilution method; settings: Y0109, 24 h
[2] = tested on: Candida albicans; test: Antifungal activity against Candida albicans SC5314 after 24 hrs by serial dilution method; settings: SC5314, 24 h
[3] = tested on: Candida parapsilosis; test: Antifungal activity against Candida parapsilosis ATCC 22019 after 24 hrs by serial dilution method; settings: Lodderomyces parapsilosis, ATCC 22019, 24 h
[4] = tested on: Nakaseomyces glabratus; test: Antifungal activity against Candida glabrata after 24 hrs by serial dilution method
[5] = tested on: Cryptococcus neoformans; test: Antifungal activity against Cryptococcus neoformans after 72 hrs by serial dilution method
[6] = tested on: Aspergillus fumigatus; test: Antifungal activity against Aspergillus fumigatus after 48 hrs by serial dilution method
[7] = tested on: Trichophyton rubrum; test: Antifungal activity against Trichophyton rubrum by serial dilution method
[8] = tested on: Nannizzia gypsea; test: Antifungal activity against Microsporum gypseum by serial dilution method

Row | MIC80 [1] [µg/mL] | MIC80 [2] [µg/mL] | MIC80 [3] [µg/mL] | MIC80 [4] [µg/mL] | MIC80 [5] [µg/mL] | MIC80 [6] [µg/mL] | MIC80 [7] [µg/mL] | MIC80 [8] [µg/mL] | Compound
1 | 0.25 (≈ 0.51 µM) | 1 (≈ 2.04 µM) | 0.5 (≈ 1.02 µM) | 1 (≈ 2.04 µM) | 0.5 (≈ 1.02 µM) | > 64 | 8 (≈ 16.3 µM) | > 64 | O=c1n(-c2ccc(C(F)(F)C(O)(Cn3cnnn3)c3ccc(F)cc3F)nc2)cnn1C1CCC1 (stereo unspecified)
2 | 0.5 (≈ 1.02 µM) | 0.5 (≈ 1.02 µM) | 0.25 (≈ 0.51 µM) | 4 (≈ 8.16 µM) | 4 (≈ 8.16 µM) | > 8 |  |  | O=c1n(-c2ccc(C(F)(F)C(O)(Cn3cnnn3)c3ccc(F)cc3F)nc2)cnn1CC1CC1 (stereo unspecified)
3 | 1 (≈ 1.81 µM) | 2 (≈ 3.63 µM) | 0.5 (≈ 0.907 µM) | 4 (≈ 7.25 µM) | 4 (≈ 7.25 µM) | > 8 |  |  | N#Cc1ccc(Cn2ncn(-c3ccc(C(F)(F)C(O)(Cn4cnnn4)c4ccc(F)cc4F)nc3)c2=O)cc1 (stereo unspecified)
4 | 1 (≈ 1.78 µM) | 1 (≈ 1.78 µM) | 0.5 (≈ 0.891 µM) | 2 (≈ 3.57 µM) | 1 (≈ 1.78 µM) | > 8 |  |  | O=c1n(-c2ccc(C(F)(F)C(O)(Cn3cnnn3)c3ccc(F)cc3F)nc2)cnn1Cc1ccc(Cl)cc1 (stereo unspecified)
5 | > 8 | > 8 | > 8 | > 8 | > 8 | > 8 |  |  | CC(O)(CO)Cn1ncn(-c2ccc(C(F)(F)C(O)(Cn3cnnn3)c3ccc(F)cc3F)nc2)c1=O (stereo unspecified)
6 | 1 (≈ 1.64 µM) | 1 (≈ 1.64 µM) | 0.5 (≈ 0.819 µM) | 4 (≈ 6.55 µM) | 2 (≈ 3.28 µM) | > 8 |  |  | O=c1n(-c2ccc(C(F)(F)C(O)(Cn3cnnn3)c3ccc(F)cc3F)nc2)cnn1Cc1ccc(OC(F)(F)F)cc1 (stereo unspecified)
7 | 1 (≈ 1.9 µM) | 0.5 (≈ 0.95 µM) | 0.25 (≈ 0.475 µM) | 4 (≈ 7.6 µM) | 4 (≈ 7.6 µM) | > 8 |  |  | O=c1n(-c2ccc(C(F)(F)C(O)(Cn3cnnn3)c3ccc(F)cc3F)nc2)cnn1Cc1ccccc1 (stereo unspecified)
8 | 4 (≈ 7.58 µM) | 8 (≈ 15.2 µM) | 8 (≈ 15.2 µM) | 4 (≈ 7.58 µM) | 2 (≈ 3.79 µM) | > 64 |  |  | O=c1n(-c2ccc(C(F)(F)C(O)(Cn3cnnn3)c3ccc(F)cc3F)nc2)cnn1Cc1cccnc1 (stereo unspecified)
9 | 1 (≈ 1.84 µM) | 0.5 (≈ 0.918 µM) | 0.25 (≈ 0.459 µM) | 2 (≈ 3.67 µM) | 2 (≈ 3.67 µM) | > 8 |  |  | O=c1n(-c2ccc(C(F)(F)C(O)(Cn3cnnn3)c3ccc(F)cc3F)nc2)cnn1Cc1ccc(F)cc1 (stereo unspecified)
10 | 4 (≈ 7.58 µM) | 4 (≈ 7.58 µM) | 8 (≈ 15.2 µM) | 4 (≈ 7.58 µM) | 2 (≈ 3.79 µM) | > 64 |  |  | O=c1n(-c2ccc(C(F)(F)C(O)(Cn3cnnn3)c3ccc(F)cc3F)nc2)cnn1Cc1ccncc1 (stereo unspecified)
11 | 0.5 (≈ 0.968 µM) | 0.5 (≈ 0.968 µM) | 0.125 (≈ 0.242 µM) | 1 (≈ 1.94 µM) | 1 (≈ 1.94 µM) | > 64 | 2 (≈ 3.87 µM) | 8 (≈ 15.5 µM) | O=c1n(-c2ccc(C(F)(F)C(O)(Cn3cnnn3)c3ccc(F)cc3F)nc2)cnn1C1CC=CCC1 (stereo unspecified)
12 | 4 (≈ 7.51 µM) | > 8 | 2 (≈ 3.76 µM) | > 8 | > 8 | > 8 |  |  | O=C1CCCCC1n1ncn(-c2ccc(C(F)(F)C(O)(Cn3cnnn3)c3ccc(F)cc3F)nc2)c1=O (stereo unspecified)
13 | 8 (≈ 14.3 µM) | 16 (≈ 28.5 µM) | 16 (≈ 28.5 µM) | 16 (≈ 28.5 µM) | 16 (≈ 28.5 µM) | > 64 | 1 (≈ 1.78 µM) | > 64 | CC(C)C1CCC(n2ncn(-c3ccc(C(F)(F)C(O)(Cn4cnnn4)c4ccc(F)cc4F)nc3)c2=O)CC1 (stereo unspecified)
14 | > 8 | > 8 | 4 (≈ 7.87 µM) | > 8 | > 8 | > 8 |  |  | CC(C)(O)Cn1ncn(-c2ccc(C(F)(F)C(O)(Cn3cnnn3)c3ccc(F)cc3F)nc2)c1=O (stereo unspecified)
15 | 1 (≈ 1.88 µM) | 2 (≈ 3.76 µM) | 1 (≈ 1.88 µM) | 2 (≈ 3.76 µM) | 1 (≈ 1.88 µM) | > 64 | 0.5 (≈ 0.939 µM) | > 64 | CC1CCC(n2ncn(-c3ccc(C(F)(F)C(O)(Cn4cnnn4)c4ccc(F)cc4F)nc3)c2=O)CC1 (stereo unspecified)
16 | 0.5 (≈ 0.899 µM) | 0.5 (≈ 0.899 µM) | 0.25 (≈ 0.449 µM) | 2 (≈ 3.59 µM) | 2 (≈ 3.59 µM) | > 8 |  |  | COc1ccc(Cn2ncn(-c3ccc(C(F)(F)C(O)(Cn4cnnn4)c4ccc(F)cc4F)nc3)c2=O)cc1 (stereo unspecified)
17 | > 8 | > 8 | 4 (≈ 7.93 µM) | > 8 | > 8 | > 8 |  |  | O=c1n(-c2ccc(C(F)(F)C(O)(Cn3cnnn3)c3ccc(F)cc3F)nc2)cnn1CC#CCO (stereo unspecified)
18 | 2 (≈ 3.95 µM) | 1 (≈ 1.97 µM) | 0.25 (≈ 0.494 µM) | 1 (≈ 1.97 µM) | 4 (≈ 7.9 µM) | > 8 |  |  | CCC(CC)n1ncn(-c2ccc(C(F)(F)C(O)(Cn3cnnn3)c3ccc(F)cc3F)nc2)c1=O (stereo unspecified)
